Laboratory results as given in patent publication US9422309B2, “3-O-heteroaryl-ingenol” (LEO LABORATORIES LIMITED, priority 2012, dated 2016).

Experiments:
Assay type in all cases: cell-based
[1] = test system: PMN's (polymorphonuclear leukocytes); test: Neutrophil oxidative burst; conditions: Leukocyte, 40 min; 40 min incubation at rt; normalised to 5×10^−7 M PEP0005; read-out: Neutrophil oxidative burst Rel EC50 range
Procedure: PMN's (polymorphonuclear leukocytes) are isolated and purified from fresh buffy coats by sequential sedimentation, density centrifugation and lysis of contaminating erythrocytes. In brief, buffy coats are incubated with 2% methocel for 30-45 min to differentially sediment red blood cells. The leukocyte-rich supernatant is transferred to lymphoprep tubes to remove mononuclear cells by density centrifugation (400×g, 30 min). The pellet is resuspended and any remaining erythrocytes lysed using 0.2% NaCl for 30 sec before restoring isotonicity by the addition of 1.2% NaCl. This step is repeated until the cell pellet appears relatively free of red blood cells. Cells are resuspended in DPBS (Dulbecco's Phosphate Buffered Saline) (w.o. Ca^2+, Mg^2+) and the concentration adjusted to 1.4×10^6 cells/ml in HBSS (Hanks Balanced Salt solution) (w Ca^2+, Mg^2+) containing 0.1% BSA (Bovine Serum Albumin) and 5 mM glucose just prior to assay initiation. Titrated reference and test compounds are pre-mixed with HE (Hydroethidine) (10 μM final assay concentration) before addition to 96-well plates containing 2.5×10^5 cells. Following 40 min incubation at rt, changes in the respiratory burst is estimated by measuring fluorescence at 579 nm (excitation: 485 nm) using an Envision plate reader.
Test compound titration curves are fitted to a four-parameter sigmoidal curve after normalizing the effect of the test compound to the effect of the positive control (5×10^−7 M PEP0005). Rel EC50 denotes the concentration of test compound producing an effect that is midway between the fitted top and bottom. Abs EC50 is the concentration of test compound that provokes a response corresponding to 50% of the maximal effect associated with the positive control (5×10^−7 M PEP0005).

[2] = test system: Primary human epidermal keratinocytes, HeKa; test: HeKa cytokine release (IL-8); conditions: 6 h at 37° C., normalised to 1.5×10^−7 M PEP0005, read-out: HeKa cytokine release (IL-8) Rel EC50 range
Procedure: Primary human epidermal keratinocytes, HeKa, are seeded (10.000 cells/well) in 96-well plates the day before the assay. Test compounds are diluted in DMSO (dimethyl sulfoxide) and further diluted in assay medium and pipetted into wells of 96 well-plates containing HeKa cells. The plates are incubated for 6 h at 37° C. in humidified air with 5% CO2. Plates are centrifuged briefly to spin down cells at 4° C., the supernatant is removed and analysed by Meso Scale Discovery (MSD) 4-spot cytokine assay (Pro-inflammatory II Ultra Sensitive kit, MSD, MD, USA). The MSD assay employs a sandwich immunoassay format where capture antibodies are coated in a patterned array on the bottom of the wells of a 4-Spot-Multi-MSD plate. Standard samples are incubated in the MULTI-SPOT plates as well, and the cytokine (IL-8) binds to its corresponding capture antibody spot. The cytokine level is quantitated on a SECTOR™ Imager using a cytokine-specific Detection Antibody labelled with MSD SULFO-TAG™ reagent.
Test compound titration curves are fitted to a four-parameter sigmoidal curve after normalizing the effect of the test compound to the effect of the positive control (1.5×10^−7 M PEP0005). Rel EC50 denotes the concentration of test compound producing an effect that is midway between the fitted top and bottom.

HeLa cells = test: Necrosis assay; conditions: Homo sapiens, 0.5 h, 30 min at 37° C., PrestoBlue, normalised to 4 10^−4 M PEP0005/ingenol mebutate, read-out: HeLa necrosis EC50 range
Procedure: HeLa cells (ATCC CCL-002) were grown in minimal essential medium (Invitrogen catalog no. 42360) containing 10% fetal bovine serum, 100 IU/ml penicillin and 100 μg/ml streptomycin. 4,000-6,000 cells were seeded into 96-well black ViewPlates-plates, clear bottom, (Perkin Elmer) in 100 μl medium and incubated overnight. Compounds were dissolved and pre-diluted in DMSO in 96-well polypropylene plates (Greiner) in a concentration range of 15 μM to 600 μM. At the time of the experiment cell plates were placed on heating blocks at 37° C., medium was removed and 40 μl fresh, pre-warmed medium was added per well. Cells were incubated for 15 min before addition of compounds. In parallel, 3 μl of compounds were diluted with 197 μl growth medium on a Tecan freedom-EVO pipetting station using 250 μl/s pipetting speed, in order to ensure effective mixing of the highly concentrated compound solutions with the aqueous phase.
These pre-dilution plates were then equilibrated on heating blocks at 37° C. for 10 min. 80 μl pre-diluted compound were transferred manually to the corresponding wells containing HeLa cells yielding compound concentrations of 10 μM to 400 μM. Control conditions were 1% DMSO in growth medium (100% viability) and 400 μM ingenol mebutate in growth medium (0% viability). Plates were incubated on the heating blocks at 37° C. for 30 min. At the end of the incubation 10 μl PrestoBlue reagent (Invitrogen) were added to each well, plates were sealed with black seal, followed by incubation at 37° C. for 10 min with gentle shaking (150 rpm). Subsequently, plates were placed at room temperature for 20-30 min. Plates were read immediately after on an Envision Fluorescence reader (Perkin Elmer) with excitation at 535 nm and emission at 630 nm. Test compound titration curves were fitted to a four-parameter sigmoidal curve after normalizing the effect of the test compound to the effect of the positive control (4 10^−4 M PEP0005/ingenol mebutate). Abs EC50 denotes the concentration of test compound producing 50% effect.

Row | SMILES | EC50 [1] | EC50 [2] | EC50 (HeLa cells)
1 | CC1=C[C@]23C(=O)[C@@H](C=C(CO)[C@@H](O)[C@]2(O)[C@H]1Oc1noc2ccccc12)[C@H]1[C@@H](C[C@H]3C)C1(C)C [Compound 102, 3-O-(1,2-Benzoxazol-3-yl)-ingenol] | < 20 nM | < 20 nM | 150000 to 350000 nM
2 | CC1=C[C@]23C(=O)[C@@H](C=C(CO)[C@@H](O)[C@]2(O)[C@H]1Oc1nn(C)c2ccccc12)[C@H]1[C@@H](C[C@H]3C)C1(C)C [Compound 107, 3-O-(1-Methylindazol-3-yl)-ingenol] | ≥ 100 nM | ≥ 100 nM | 150000 to 350000 nM
3 | CC1=C[C@]23C(=O)[C@@H](C=C(CO)[C@@H](O)[C@]2(O)[C@H]1Oc1ncccc1C)[C@H]1[C@@H](C[C@H]3C)C1(C)C [Compound 124, 3-O-(3-Methyl-2-pyridyl)-ingenol] | ≥ 100 nM | ≥ 100 nM | ≥ 350000 nM
4 | COc1cccnc1O[C@H]1C(C)=C[C@]23C(=O)[C@@H](C=C(CO)[C@@H](O)[C@]12O)[C@H]1[C@@H](C[C@H]3C)C1(C)C [Compound 129, 3-O-(3-Methoxy-pyridin-2-yl)-ingenol] | ≥ 100 nM | ≥ 100 nM | ≥ 350000 nM
5 | C=CCc1c(Cl)ncnc1O[C@H]1C(C)=C[C@]23C(=O)[C@@H](C=C(CO)[C@@H](O)[C@]12O)[C@H]1[C@@H](C[C@H]3C)C1(C)C [Compound 104, 3-O-(5-Allyl-6-chloro-pyrimidin-4-yl)-ingenol] | 20 to 100 nM | < 20 nM | < 150000 nM
6 | CC1=C[C@]23C(=O)[C@@H](C=C(CO)[C@@H](O)[C@]2(O)[C@H]1Oc1noc2cccc(F)c12)[C@H]1[C@@H](C[C@H]3C)C1(C)C [Compound 128, 3-O-(4-Fluoro-1,2-benzoxazol-3-yl)-ingenol] | < 20 nM | < 20 nM | 150000 to 350000 nM
7 | COc1ccc2c(O[C@H]3C(C)=C[C@]45C(=O)[C@@H](C=C(CO)[C@@H](O)[C@]34O)[C@H]3[C@@H](C[C@H]5C)C3(C)C)noc2c1 [Compound 132, 3-O-(6-Methoxy-1,2-benzoxazol-3-yl)-ingenol] | < 20 nM | < 20 nM | ≥ 350000 nM
8 | CC1=C[C@]23C(=O)[C@@H](C=C(CO)[C@@H](O)[C@]2(O)[C@H]1Oc1ccccn1)[C@H]1[C@@H](C[C@H]3C)C1(C)C [Compound 106, 3-O-(2-Pyridyl)-ingenol] | ≥ 100 nM | 20 to 100 nM | ≥ 350000 nM
9 | CC1=C[C@]23C(=O)[C@@H](C=C(CO)[C@@H](O)[C@]2(O)[C@H]1Oc1ncccc1C#N)[C@H]1[C@@H](C[C@H]3C)C1(C)C [Compound 116, 3-O-(3-Cyano-2-pyridyl)-ingenol] | 20 to 100 nM | ≥ 100 nM | ≥ 350000 nM
10 | CC1=C[C@]23C(=O)[C@@H](C=C(CO)[C@@H](O)[C@]2(O)[C@H]1Oc1ncccc1C(F)(F)F)[C@H]1[C@@H](C[C@H]3C)C1(C)C [Compound 118, 3-O-(3-(Trifluoromethyl)-2-pyridyl)-ingenol] | < 20 nM | 20 to 100 nM | < 150000 nM
11 | CC1=C[C@]23C(=O)[C@@H](C=C(CO)[C@@H](O)[C@]2(O)[C@H]1Oc1ncccc1C=O)[C@H]1[C@@H](C[C@H]3C)C1(C)C [Compound 105, 3-O-(3-Formyl-2-pyridyl)-ingenol] | ≥ 100 nM | ≥ 100 nM | ≥ 350000 nM
12 | CC1=C[C@]23C(=O)[C@@H](C=C(CO)[C@@H](O)[C@]2(O)[C@H]1Oc1noc(C(C)C)n1)[C@H]1[C@@H](C[C@H]3C)C1(C)C [Compound 133, 3-O-(5-Isopropyl-1,2,4-oxadiazol-3-yl)-ingenol] | 20 to 100 nM | 20 to 100 nM | ≥ 350000 nM
13 | CC1=C[C@]23C(=O)[C@@H](C=C(CO)[C@@H](O)[C@]2(O)[C@H]1Oc1nccc2ccsc12)[C@H]1[C@@H](C[C@H]3C)C1(C)C [Compound 123, 3-O-(Thieno[2,3-c]pyridine-7-yl)-ingenol] | 20 to 100 nM | < 20 nM | ≥ 350000 nM
